One data set deals with HepG-2 cells. As to the kind of experiment: MTT assay, cytotoxic effects on HepG-2 cells. It counts as cell-based, human. Particulars: 48 h, read-out: IC50 HepG-2. On the procedure: Primary hepatocytes were isolated from male SD rats weighing 250–300 g using a modified in situ collagenase perfusion method and then the cells were cultured in Dulbecco’s Modified Eagle’s Medium (DMEM) with 2 g/L bovine serum albumin (BSA) and 50 mg/L gentamicin. HepG-2 cells were incubated in RPMI 1640 medium supplemented with 10% fetal bovine serum (FBS) and 1% penicillin–streptomycin liquid. Cells were incubated at 37 °C in a humidified atmosphere of 95% air and 5% CO2. Stock solutions of compounds and cisplatin were prepared in dimethyl sulfoxide (DMSO), then added to fresh culture medium to obtain final concentrations.
Next, compounds b14 and b18 were prepared in five different concentrations (20 µM, 40 µM, 60 µM, 80 µM, 100 µM), and compounds b15, b16, and b17, along with cisplatin, were prepared in seven different concentrations (2.5 µM, 5 µM, 7.5 µM, 10 µM, 20 µM, 40 µM, 60 µM). A suspension of growing cells (50,000/mL) was prepared, and 100 µL/well dispensed into 96-well plates, yielding a density of 5000 cells/well. The cells were incubated for 24 h before adding the pyrazoline derivatives. The optimal cell number for cytotoxicity assays was determined in preliminary experiments. At the end of the incubation period, the medium was removed and 100 µL of different concentrations of pyrazoline derivatives were added to wells for 24 h and 48 h. Following the exposure period, 20 µL of MTT (5 mg/mL) were added to cells and incubated for a further 4 h at 37 °C. The medium was removed and the formazan crystals were solubilized by adding 150 µL DMSO to each well. After 10 min of shaking, the absorbance was measured at 550 nm using a FilterMax F5 Multi-Mode Microplate Reader (Energy Chemical, Shanghai, China). Cells were treated with each compound with four replicates per concentration, and each experiment was conducted at least three times. Dose–inhibition rate curves and IC50 values, defined as the drug concentrations which reduced absorbance to 50% of control values, were then generated.

[1] abbreviates: Homo sapiens, HepG2, HepG-2 cell line.

Like-named read-outs stand apart in the source and are kept apart here.

As usually defined, the IC50 is the concentration needed to halve the response being measured. As a reminder, the melting point is the temperature of the solid-liquid transition. Molecule `COc1cc(C2CC(c3ccccc3O)=NN2C(=O)c2cc([N+](=O)[O-])cc([N+](=O)[O-])c2)cc(OC)c1O` (stereo not shown) [b13, (3,5-Dinitrophenyl)-[5-(4-hydroxy-3,5-dimethoxyphenyl)-3-(2-hydroxyphenyl)-4,5-dihydro-pyrazol-1-yl]-methanone] had a melting point of 240.4 to 240.9 °C. The 50% inhibitory concentration (IC50) in the data set on HepG-2 cells (setting [1]) was over 50 µM. The matching figures for `COc1cc(C2CC(c3ccc([N+](=O)[O-])cc3)=NN2)cc(OC)c1O` (stereo not shown) [b2, 2,6-Dimethoxy-4-[5-(4-nitrophenyl)-3,4-dihydro-2H-pyrazol-3-yl]-phenol]: 140.7 to 141.1 °C and over 50 µM. The molecule `COc1cc(C2CC(c3ccc([N+](=O)[O-])cc3)=NN2)cc(Br)c1O` (stereo not shown) [b4, 2-Bromo-6-methoxy-4-[5-(4-nitrophenyl)-3,4-dihydro-2H-pyrazol-3-yl]-phenol] gave a melting point of 208.6 to 208.9 °C. The IC50 with HepG-2 cells (setting [1]) is over 50 µM. The matching figures for `COc1cc(C2CC(c3ccccc3O)=NN2C(=O)c2ccc([N+](=O)[O-])cc2)cc(OC)c1O` (stereo not shown) [b12, [5-(4-Hydroxy-3,5-dimethoxyphenyl)-3-(2-hydroxyphenyl)-4,5-dihydro-pyrazol-1-yl]-(4-nitrophenyl)-methanone]: 250.1 to 251.2 °C and over 50 µM. The molecule `COc1cc(C2CC(c3ccccc3O)=NN2S(=O)(=O)c2cccc([N+](=O)[O-])c2)cc(OC)c1O` (stereo not shown) [b7, 4-[5-(2-Hydroxyphenyl)-2-(3-nitro-benzenesulfonyl)-3,4-dihydro-2H-pyrazol-3-yl]-2,6-dimethoxy-phenol] registered a melting point of 131.9 to 133.5 °C. The half-maximal inhibitory concentration (IC50) in the data set on HepG-2 cells (setting [1]) is over 50 µM. `COc1cc(C2CC(c3ccccc3O)=NN2C(=O)c2cccc([N+](=O)[O-])c2)cc(OC)c1O` (stereo not shown) [b11, [5-(4-Hydroxy-3,5-dimethoxyphenyl)-3-(2-hydroxyphenyl)-4,5-dihydro-pyrazol-1-yl]-(3-nitrophenyl)-methanone] yielded a melting point of 207.7 to 209.3 °C. Moreover, the half-maximal inhibitory concentration (IC50) in the data set on HepG-2 cells (setting [1]) was over 50 µM.

Regarding `COc1cc(C2CC(c3ccccc3O)=NN2C(=O)c2ccccc2[N+](=O)[O-])cc(OC)c1O` (stereo not shown) [b10, [5-(4-Hydroxy-3,5-dimethoxyphenyl)-3-(2-hydroxyphenyl)-4,5-dihydro-pyrazol-1-yl]-(2-nitrophenyl)-methanone], the melting point is 194.6 to 194.7 °C. In the data set with HepG-2 cells (setting [1]), the IC50 is over 50 µM. `COc1cc(C2CC(c3ccccc3O)=NN2)cc(Br)c1O` (stereo not shown) [b3, 2-Bromo-4-[5-(2-hydroxyphenyl)-3,4-dihydro-2H-pyrazol-3-yl]-6-methoxy-phenol] showed a melting point of 181.8 to 183.9 °C. The IC50 in the data set with HepG-2 cells (setting [1]) is over 50 µM. In turn, `COc1cc(C2CC(c3ccccc3O)=NN2S(=O)(=O)c2ccc([N+](=O)[O-])cc2)cc(OC)c1O` (stereo not shown) [b8, 4-[5-(2-Hydroxyphenyl)-2-(4-nitro-benzenesulfonyl)-3,4-dihydro-2H-pyrazol-3-yl]-2,6-dimethoxy-phenol] yielded a melting point of 195.5 to 197 °C. Also, in the data set with HepG-2 cells (setting [1]), the IC50 is over 50 µM. `COc1cc(C2CC(c3ccccc3O)=NN2S(=O)(=O)c2ccccc2[N+](=O)[O-])cc(OC)c1O` (stereo not shown) [b6, 4-[5-(2-Hydroxyphenyl)-2-(2-nitro-benzenesulfonyl)-3,4-dihydro-2H-pyrazol-3-yl]-2,6-dimethoxy-phenol] came in with a melting point of 151.1 to 152.8 °C. Also, the half-maximal inhibitory concentration (IC50) with HepG-2 cells (setting [1]) was over 50 µM. The molecule `COc1cc(C2CC(c3ccc(C)cc3)=NN2c2ccccc2)cc(OC)c1OC` (stereo not shown) [b19, 1-Phenyl-3-p-tolyl-5-(3,4,5-trimethoxyphenyl)-4,5-dihydro-1H-pyrazole] returned a melting point of 137.9 to 140.3 °C. The IC50 in the data set on HepG-2 cells (setting [1]) is over 50 µM. For `N.N.[Cl][Pt][Cl]` [Cisplatin, cisplatin, reference compound], the IC50 in the data set with HepG-2 cells (HepG-2 cell line) was 8.45 ± 1.05 µM.

On to `COc1cc(C2CC(c3ccccc3O)=NN2)cc(OC)c1O` (stereo not shown) [b1, 4-[5-(2-Hydroxyphenyl)-3,4-dihydro-2H-pyrazol-3-yl]-2,6-dimethoxy-phenol], for which the melting point lay in the range of 140.3 to 140.7 °C. In addition, in the data set with HepG-2 cells (setting [1]), the concentration for half-maximal inhibition (IC50) is over 50 µM.

Values taken from paper PMC6155299, “Synthesis and Evaluation of New Pyrazoline Derivatives as Potential Anticancer Agents in HepG-2 Cell Line” (Molecules : A Journal of Synthetic Chemistry and Natural …, 2017).
